Peptide text beside a SMILES is read from it.
Columns and labels:
pepsin = details: in all liposomal formulations; SGF with pepsin 3.2 mg/mL, 2 h, 37 ± 0.5°C, HPLC
Description: The dissolution experiment was performed according to Liu et al. ([2012]) with some modifications. Different samples were placed in a simulated gastric fluid for 2 h (SGF: 0.2 g of NaCl dissolved in 0.7 mL of HCl and filled up to 100 ml with distilled water then pepsin was added at a concentration of 3.2 mg/mL). Then, the dissolution was performed in simulated intestinal fluid (SIF: 6.8 g of potassium phosphate monobasic sodium hydroxide with a pH adjusted to 7.4 with 2N sodium hydroxide to a volume of 100 mL and a concentration of 0.2 mg/mL bovine bile extract), the pH was adjusted to 7.4. Pancreatin was added at a concentration of 20 mg/mL (equivalent to a protease activity of 500 U/mL). The dissolution was performed for 4 h at a temperature of 37 ± 0.5°C with stirring at 140 rpm. To perform the experiment 3 ml of the individual suspensions of liposomes was added to 3 mL of gastric fluid and samples of 500 μL of medium are removed at intervals of 1 h for the gastric fluid portion and at 0, 15, 30, 60, 120, 240 min during the intestinal dissolution. The contents MccJ25 samples were determined by HPLC. […] The blank was performed in similar conditions with a solution of non-encapsulated MccJ25.

S. enteritidis = assay: Microtitration assay (critical dilution), activity in AU; format: cell-based, Salmonella enteritidis
Description: The second activity test was carried out using the same strain (S. enteritidis) in polystyrene 96-well micro-assay plates (Microtest, Becton–Dickinson Labware, MD, USA) as described by Ennaas et al. ([2016]). Briefly, fractions were added to microplates and diluted 2-folds with LB broth. Then, wells were seeded with ~1 × 10^4 CFU of strain per well using log-phase culture diluted in LB to 0.5–1.0 × 10^6 CFU ml^−1. The plates were incubated for 18 h at 37°C. After incubation, OD at 595 nm was measured using an Infinite® F200 PRO photometer (Tecan US Inc., Durham, NC). Antimicrobial activity results were expressed as arbitrary units per milliliter (AU ml^−1) that calculated as follows:
AU ml^−1 = (1,000/100) × 2 n, where n = number of inhibited wells.

| Structure (SMILES) | Resistance of MccJ25 to gastric digestion (pepsin) | Specific activity (AU/mg) (S. enteritidis; activity per mg protein (Lowry method)) | Inhibitory activity (AU/ml) (S. enteritidis; microtitration assay, S. enteritidis, 2-fold dilutions in LB, 18 h at 37°C, OD 595 nm) |
| --- | --- | --- | --- |
| CC[C@H](C)[C@H](NC(=O)CNC(=O)[C@@H](NC(=O)[C@H](Cc1ccccc1)NC(=O)[C@H](Cc1ccc(O)cc1)NC(=O)[C@@H]1CCC(=O)NCC(=O)NCC(=O)N[C@@H](C)C(=O)NCC(=O)N[C@@H](Cc2cnc[nH]2)C(=O)N[C@@H](C(C)C)C(=O)N2CCC[C@H]2C(=O)N1)C(C)C)C(=O)NCC(=O)N[C@H](C(=O)N1CCC[C@H]1C(=O)N[C@H](C(=O)N[C@@H](CO)C(=O)N[C@@H](Cc1ccccc1)C(=O)N[C@@H](Cc1ccc(O)cc1)C(=O)NCC(=O)O)[C@@H](C)CC)[C@@H](C)O [MccJ25, microcin J25] (HELM PEPTIDE1{G.G.A.G.H.V.P.E.Y.F.V.G.I.G.T.P.I.S.F.Y.G}$PEPTIDE1,PEPTIDE1,1:R1-8:R3$$$V2.0) | resisted gastric digestion |  |  |
| CC[C@H](C)[C@H](NC(=O)CNC(=O)[C@@H](NC(=O)[C@H](Cc1ccccc1)NC(=O)[C@H](Cc1ccc(O)cc1)NC(=O)[C@@H]1CCC(=O)NCC(=O)NCC(=O)N[C@@H](C)C(=O)NCC(=O)N[C@@H](Cc2c[nH]cn2)C(=O)N[C@@H](C(C)C)C(=O)N2CCC[C@H]2C(=O)N1)C(C)C)C(=O)NCC(=O)N[C@H](C(=O)N1CCC[C@H]1C(=O)N[C@H](C(=O)N[C@@H](CO)C(=O)N[C@@H](Cc1ccccc1)C(=O)N[C@@H](Cc1ccc(O)cc1)C(=O)NCC(=O)O)[C@@H](C)CC)[C@@H](C)O [MccJ25, microcin J25] (HELM PEPTIDE1{G.G.A.G.H.V.P.E.Y.F.V.G.I.G.T.P.I.S.F.Y.G}$PEPTIDE1,PEPTIDE1,1:R1-8:R3$$$V2.0; C-terminus assumed; bridges inferred) |  | 181,352 AU/mg | 524,288 AU/ml |
